Paper PMC7409197, “Adenosine Receptors as Neuroinflammation Modulators: Role of A1 Agonists and A2A Antagonists” (Cells, 2020)

Experiments:
human A2AAR = target: human A2AAR; design: method as in PMID 30614535; details: CHO cells stably transfected with human ARs; read-out: KiA2AAR; cited from earlier work
neuronal cells = experiment: Cell viability in primary neuronal cells with or without CK and AR antagonists; assay type: cell-based, rat; details: for protection of neurons against neuroinflammatory insult (cell viability): 30 min, with CK
Protocol: Neurons were obtained from hippocampus or cortex of embryos. Briefly, pregnant rat was scarified and the uterus removed. Embryos were taken out from the uterus and brains were obtained. After removing the meninges, hippocampus and cortex were dissected and homogenated with tweezers. The result was incubated with trypsin for 15 min at 37 °C and then centrifuged 2 min at 1000 rpm. The pellet was resuspended with 15 mL of HBSS/0.37% Glucose/30% FBS and centrifuged as before for three times. Finally, the pellet was resuspended with 15 mL of neurobasal media supplemented with 25 µM of glutamine. The result was filtered and plated. Cells were plated in 24 well plates at 10^5 cells/well [26].
1.7 × 10^4 mixed glial cells were cultured in 98 μL of the specific medium in a 96 well plate overnight. The next day 2 μL of ligand or CK cocktail were added to the well. After all treatments, 20 µL of CellTiter 96® AQueous One Solution Reagent was added in a final volume of 100 µL. Absorbance was read at 490 nm using the plate reader GENiosPro. Cell viability was calculated as percentage using the following formula: Cell viability =OD mean of treated cells/OD mean of control cells × 100

[1] = test system: mouse ileum contractility; design: method as in PMID 30614535; details: ex vivo mouse ileum; cited from earlier work
human A3AR = target: human A3AR; design: method as in PMID 30614535; details: CHO cells stably transfected with human ARs; read-out: KiA3AR; cited from earlier work
SH-SY5Y cells = test system: SH-SY5Y cells; design: method as in PMID 30614535; details: different concentrations; cited from earlier work
hA1AR = test system: hA1AR; design: method as in PMID 30614535; details: inhibition of adenyl cyclase activity induced by forskolin, cited from earlier work
human A1AR = target: human A1AR; design: method as in PMID 30614535; details: CHO cells stably transfected with human ARs; read-out: KiA1AR; cited from earlier work
A1AR = target: T1, A1AR (Homo sapiens, UniProt P30542); experiment: A1AR affinity (Ki), method not described; assay type: binding; details: unpublished results of the authors; read-out: KiA1AR
T1 sequence (P30542 1-326): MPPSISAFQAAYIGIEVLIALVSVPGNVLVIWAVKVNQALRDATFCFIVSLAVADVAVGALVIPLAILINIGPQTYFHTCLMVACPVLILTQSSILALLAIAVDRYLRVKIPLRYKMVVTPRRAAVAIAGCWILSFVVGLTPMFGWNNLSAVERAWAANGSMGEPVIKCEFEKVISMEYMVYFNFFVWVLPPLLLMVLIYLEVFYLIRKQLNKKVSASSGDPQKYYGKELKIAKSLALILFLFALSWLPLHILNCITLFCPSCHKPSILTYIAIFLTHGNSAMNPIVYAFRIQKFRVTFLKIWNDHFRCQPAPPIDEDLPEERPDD

A2AAR [2] = target: T2, A2AAR (Homo sapiens, UniProt P29274); experiment: A2AAR functional antagonism (IC50), method not described; assay type: biochemical; details: unpublished results of the authors; read-out: IC50A2AAR
T2 sequence (P29274 whole entry): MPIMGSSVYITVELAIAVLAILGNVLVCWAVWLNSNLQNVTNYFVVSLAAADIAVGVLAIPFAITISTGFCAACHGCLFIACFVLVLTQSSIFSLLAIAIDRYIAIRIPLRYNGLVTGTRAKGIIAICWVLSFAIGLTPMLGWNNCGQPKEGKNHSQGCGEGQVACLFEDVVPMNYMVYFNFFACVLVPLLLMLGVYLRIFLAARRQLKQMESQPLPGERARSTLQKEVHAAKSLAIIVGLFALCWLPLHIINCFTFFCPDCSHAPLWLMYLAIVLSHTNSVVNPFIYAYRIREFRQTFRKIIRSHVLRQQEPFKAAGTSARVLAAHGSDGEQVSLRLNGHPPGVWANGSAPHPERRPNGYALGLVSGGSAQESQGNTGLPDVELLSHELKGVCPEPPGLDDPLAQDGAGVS

A3AR = target: T3, A3AR (Homo sapiens, UniProt P0DMS8); experiment: A3AR affinity (Ki), method not described; assay type: binding; details: unpublished results of the authors; read-out: KiA3AR
T3 sequence (P0DMS8 1-318): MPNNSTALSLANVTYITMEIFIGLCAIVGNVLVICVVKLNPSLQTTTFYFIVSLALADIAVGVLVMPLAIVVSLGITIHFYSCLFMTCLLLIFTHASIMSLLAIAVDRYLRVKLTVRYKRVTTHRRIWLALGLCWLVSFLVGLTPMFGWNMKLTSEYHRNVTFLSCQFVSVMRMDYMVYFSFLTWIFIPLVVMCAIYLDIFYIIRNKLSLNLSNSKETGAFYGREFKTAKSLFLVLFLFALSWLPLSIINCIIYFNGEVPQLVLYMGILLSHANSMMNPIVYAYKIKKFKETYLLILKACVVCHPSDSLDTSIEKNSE

A2AAR [3] = target: T2, A2AAR; experiment: A2AAR affinity (Ki), method not described; assay type: binding; details: unpublished results of the authors; read-out: KiA2AAR
mixed glial cells = experiment: Trypan blue exclusion test in mixed glial cells; assay type: cell-based, rat; details: 30 min
Protocol: 6 × 10^5 mixed glial cells were seeded in a six well plate and after 24 h incubated with C2 10 nM alone or in presence of CK cocktail. After 30 min at 37 °C cells were detached with Trypsin-EDTA solution and 10 µL of cells were added to 40 μL of 0.4% trypan blue solution. Cells were counted with a Neubauer chamber and the number of live cells was calculated.

Row | SMILES | Ki (human A2AAR) | protection of neurons against neuroinflammatory insult (cell viability) (neuronal cells; C1 5.5 µM, C2 10 nM) | cell viability, effect against A1AR antagonist DPCPX (neuronal cells; neurons, C1 5.5 µM, DPCPX 100 nM, in presence of CK) | maximal reduction of contractility relative to full agonist CCPA [1] | Ki (human A3AR) | protection from oxygen-glucose deprivation (OGD) (SH-SY5Y cells) | α (intrinsic activity, partial agonist) (hA1AR) | EC50 (hA1AR; read-out: EC50A1AR) | Ki (human A1AR) | Ki (A1AR) | IC50 (A2AAR [2]) | cell viability, combination with A2AAR antagonist SCH58261 (neuronal cells; neurons, C2 10 nM, SCH58261 50 nM) | Ki (A3AR) | Ki (A2AAR [3]) | live cells vs. control (trypan blue) (mixed glial cells; 10 nM alone) | number of cells vs. control (trypan blue) (mixed glial cells; 10 nM, after aggression with CK cocktail)
1 | OC[C@H]1O[C@@H](n2cnc3c(NC4CCCC4)nc(Cl)nc32)C[C@@H]1O [Compound C1, 2-chloro-N^6-cyclopentyl-2′-deoxyadenosine] | 24800 nM | beneficial effects in protecting neurons | partially counteract the effect of DPCPX | 75% | 5560 nM | protect SH-SY5Y cells from oxygen-glucose deprivation (OGD) | 0.70 | 832 nM | 550 nM | – | – | – | – | – | – | –
2 | CCn1c(Cl)nc2c(N)nc(OCCc3ccccc3)nc21 [Compound C2, 8-chloro-9-ethyl-2-phenethoxyadenine] | – | beneficial effects in protecting neurons | – | – | – | – | – | – | – | 17 nM | 251 nM | did not exhibited a synergic effect | 227 nM | 0.75 nM | 123 ± 4.5 | 129 ± 3.5
